Measurements reported in patent publication US8106048B2, “Heterocyclic NF-κB inhibitors” (4SC AG, priority 2004, dated 2012).

System: A549-NF-κB-SEAP reporter cells
Assay: Inhibition of NF-κB-induced inflammation: […] NINA Instant Assay, TNF-α stimulated SEAP reporter
Type: cell-based
Settings: % inhibition classes
Summary of the method: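 A549 cells carrying an NF-κB-driven SEAP reporter were pretreated with compound (0.01–100 μM) for 4.5 h, then stimulated with 2 ng/ml TNF-α for 22 h. After inactivation of endogenous phosphatases, SEAP activity was read by CSPD chemiluminescence (40 min). EC50 values were fitted from quadruplicate data points.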

Row | Compound | Biological activity (inhibition in the NF-κB inflammation assay)
1 | N=C(NC(=O)c1cnc(NC(=O)c2ccccc2OC(F)(F)F)s1)Nc1nc2ccccc2[nH]1 [compound 50] | +++ (“+++” stands for 90-100% inhibition)
2 | O=C(CCC1CCCC1)Nc1nc(C(=O)N2CCN(c3cccc(C(F)(F)F)c3)CC2)cs1 [compound 33] | +++ (“+++” stands for 90-100% inhibition)
3 | O=C(CCC1CCCC1)N1CCN(c2nc(C(=O)N3CCN(c4cccc(C(F)(F)F)c4)CC3)cs2)CC1 [compound 37] | +++ (“+++” stands for 90-100% inhibition)
4 | O=C(c1csc(C2CCN(C(=O)c3ccccc3OC(F)(F)F)CC2)n1)N(CCc1ccccc1)Cc1ccccc1 [compound 149] | + (“+” stands for 50-80% inhibition)
5 | O=C(c1csc(C2CCN(S(=O)(=O)c3c(F)c(F)c(F)c(F)c3F)CC2)n1)N1CCN(c2cccc(C(F)(F)F)c2)CC1 [compound 193] | + (“+” stands for 50-80% inhibition)
6 | O=C(Nc1ccc2c(c1)OCCO2)N1CCC(c2nc(C(=O)N3CCN(c4cccc(C(F)(F)F)c4)CC3)cs2)CC1 [compound 136] | + (“+” stands for 50-80% inhibition)
7 | COc1nc(OC)nc(N2CCN(C(=O)c3csc(C4CCNCC4)n3)CC2)n1 [compound 152] | ++ (“++” means 80-90%)
8 | O=C(NCC1CCN(c2nc(C(=O)N3CCN(c4cccc(C(F)(F)F)c4)CC3)cs2)CC1)c1ccc(C(F)(F)F)c(F)c1 [compound 99] | + (“+” stands for 50-80% inhibition)
9 | O=C(c1csc(C2CCN(S(=O)(=O)c3ccccc3Br)CC2)n1)N1CCN(c2cccc(C(F)(F)F)c2)CC1 [compound 196] | + (“+” stands for 50-80% inhibition)
10 | Cc1nnsc1C(=O)N1CCC(c2nc(C(=O)N3CCN(c4cccc(C(F)(F)F)c4)CC3)cs2)CC1 [compound 221] | + (“+” stands for 50-80% inhibition)
11 | O=C(NCCc1cccs1)N1CCC(c2nc(C(=O)N3CCN(c4cccc(C(F)(F)F)c4)CC3)cs2)CC1 [compound 77] | +++ (“+++” stands for 90-100% inhibition)
12 | O=C(c1csc(C2CCN(CCC(c3ccccc3)c3ccccc3)CC2)n1)N1CCN(c2cccc(C(F)(F)F)c2)CC1 [compound 35] | +++ (“+++” stands for 90-100% inhibition)
13 | COc1cc2c(cc1OC)CN(C(=O)c1csc(C3CCN(C(=O)Cc4ccc(F)cc4)CC3)n1)C(C)C2 (centres unmarked) [compound 232] | + (“+” stands for 50-80% inhibition)
14 | O=C(Nc1nc2ccccc2[nH]1)c1csc(C2CCN(C(=O)c3ccccc3OC(F)(F)F)CC2)n1 [compound 105] | + (“+” stands for 50-80% inhibition)
15 | COc1cc(N2CCC(c3nc(C(=O)N4CCN(c5cccc(C(F)(F)F)c5)CC4)cs3)CC2)nc(OC)n1 [compound 164] | ++ (“++” means 80-90%)
16 | O=C(c1cc(C(F)(F)F)cc(C(F)(F)F)c1)N1CCN(c2nc(C(=O)N3CCN(c4cccc(C(F)(F)F)c4)CC3)cs2)CC1 [compound 59] | + (“+” stands for 50-80% inhibition)
17 | O=C(O)c1cccc(O)c1C(=O)N1CCC(c2nc(C(=O)N3CCN(c4cccc(C(F)(F)F)c4)CC3)cs2)CC1 [compound 186] | + (“+” stands for 50-80% inhibition)
18 | O=C(c1csc(C2CCN(C(=O)c3ccccc3OC(F)(F)F)CC2)n1)N(Cc1ccc(Cl)cc1)Cc1ccc(Cl)cc1 [compound 110] | + (“+” stands for 50-80% inhibition)
19 | Nc1nc(NC(=O)c2csc(C3CCN(C(=O)c4ccccc4OC(F)(F)F)CC3)n2)n[nH]1 [compound 89] | + (“+” stands for 50-80% inhibition)
20 | NC(=Nc1nc2ccccc2[nH]1)NC(=O)c1csc(NC(=O)c2ccccc2OC(F)(F)F)n1 [compound 82] | +++ (“+++” stands for 90-100% inhibition)
21 | O=C(O)c1ccc(C(=O)O)c(C(=O)N2CCC(c3nc(C(=O)N4CCN(c5cccc(C(F)(F)F)c5)CC4)cs3)CC2)c1 [compound 184] | + (“+” stands for 50-80% inhibition)
22 | O=C(c1csc(C2CCN(C(=O)c3ccccc3OC(F)(F)F)CC2)n1)N1CCC(n2nnc3ccccc32)CC1 [compound 111] | + (“+” stands for 50-80% inhibition)

Row | Compound | Biological activity (inhibition in the NF-κB inflammation assay)
23 | O=C(Nc1ccccc1)N1CCC(c2nc(C(=O)N3CCN(c4cccc(C(F)(F)F)c4)CC3)cs2)CC1 [compound 73] | ++ (“++” means 80-90%)
24 | O=C(Cc1ccc(F)cc1)N1CCC(c2nc(C(=O)N3CCN(c4ccccc4)CC3)cs2)CC1 [compound 180] | + (“+” stands for 50-80% inhibition)
25 | COc1cccc(C(=O)N2CCC(c3nc(C(=O)N4CCN(c5cccc(C(F)(F)F)c5)CC4)cs3)CC2)c1 [compound 209] | + (“+” stands for 50-80% inhibition)
26 | O=C(c1csc(N2CCNCC2)n1)N1CCN(c2cccc(C(F)(F)F)c2)CC1 [compound 64] | + (“+” stands for 50-80% inhibition)
27 | O=C(c1ccc(C(F)(F)F)c(F)c1)N1CCN(c2nc(C(=O)N3CCN(c4cccc(C(F)(F)F)c4)CC3)cs2)CC1 [compound 60] | +++ (“+++” stands for 90-100% inhibition)
28 | CC(c1cc2ccccc2[nH]1)N(C)C(=O)c1csc(C2CCN(C(=O)c3ccccc3OC(F)(F)F)CC2)n1 (centres unmarked) [compound 145] | + (“+” stands for 50-80% inhibition)
29 | COc1nc(OC)nc(N2CCN(C(=O)c3csc(C4CCN(Cc5ccccc5)CC4)n3)CC2)n1 [compound 120] | + (“+” stands for 50-80% inhibition)
30 | O=C(Nc1nc(C(=O)N2CCN(c3cccc(C(F)(F)F)c3)CC2)cs1)Nc1ccccc1OC(F)(F)F [compound 55] | +++ (“+++” stands for 90-100% inhibition)
31 | O=C(c1csc(C2CCN(c3ccc(OC(F)(F)F)cc3)CC2)n1)N1CCN(c2cccc(C(F)(F)F)c2)CC1 [compound 154] | + (“+” stands for 50-80% inhibition)
32 | COc1nc(OC)nc(N2CCC(c3nc(C(=O)N4CCN(c5cccc(C(F)(F)F)c5)CC4)cs3)CC2)n1 [compound 176] | + (“+” stands for 50-80% inhibition)
33 | O=C(Nc1ccccc1OC(F)(F)F)N1CCC(c2nc(C(=O)N3CCN(c4cccc(C(F)(F)F)c4)CC3)cs2)CC1 [compound 140] | + (“+” stands for 50-80% inhibition)
34 | O=C(Nc1cc(F)cc2c1OCCO2)N1CCC(c2nc(C(=O)N3CCN(c4cccc(C(F)(F)F)c4)CC3)cs2)CC1 [compound 135] | + (“+” stands for 50-80% inhibition)
35 | Cc1cc(NC(=O)N2CCC(c3nc(C(=O)N4CCN(c5cccc(C(F)(F)F)c5)CC4)cs3)CC2)c(C(F)(F)F)o1 [compound 137] | + (“+” stands for 50-80% inhibition)
36 | O=C(Nc1nc(C(=O)N2CCN(c3cccc(C(F)(F)F)c3)CC2)cs1)c1ccccc1OC(F)(F)F [compound 32] | +++ (“+++” stands for 90-100% inhibition)
37 | O=C(c1csc(C2CCN(Cc3ccccc3Br)CC2)n1)N1CCN(c2cccc(C(F)(F)F)c2)CC1 [compound 165] | + (“+” stands for 50-80% inhibition)
38 | Cc1ccc(S(=O)(=O)N2CCC(c3nc(C(=O)N4CCN(c5cccc(C(F)(F)F)c5)CC4)cs3)CC2)cc1 [compound 204] | + (“+” stands for 50-80% inhibition)
39 | Cc1sc(C2CCN(C(=O)c3ccccc3OC(F)(F)F)CC2)nc1CC(=O)N1CCN(c2cccc(Cl)c2)CC1 [compound 128] | +++ (“+++” stands for 90-100% inhibition)
40 | COc1nc(OC)nc(N2CCN(C(=O)c3csc(C4CCN(C(=O)Cc5ccc(F)cc5)CC4)n3)CC2)n1 [compound 126] | + (“+” stands for 50-80% inhibition)
41 | O=C(c1csc(C2CCN(Cc3cc(C(F)(F)F)cc(C(F)(F)F)c3)CC2)n1)N1CCN(c2cccc(C(F)(F)F)c2)CC1 [compound 175] | + (“+” stands for 50-80% inhibition)
42 | COc1ccc(OC)c(N2CCC(c3nc(C(=O)N4CCN(c5cccc(C(F)(F)F)c5)CC4)cs3)CC2)c1 [compound 29] | ++ (“++” means 80-90%)
43 | Cc1cc2nc(NC(=O)Cc3nc(C4CCN(C(=O)c5ccccc5OC(F)(F)F)CC4)sc3C)[nH]c2cc1C [compound 106] | + (“+” stands for 50-80% inhibition)

System: NF-κB
Assay: not given
Settings: cited from earlier work

Row | Compound | NF-κB activation / activity
44 | C=C1C(=O)O[C@@H]2C[C@H](C)[C@H]3C=CC(=O)[C@@]3(C)[C@@H](O)[C@H]12 [Helenalin] | inhibit NF-κB activity by selectively alkylating the cysteine residue of the p65 subunit of NF-κB
45 | COc1cc(CNC(=O)CCCC/C=C/C(C)C)ccc1O [capsaicin] | blocked TNF-α and phorbol mediated NF-κB activation

System: IκB-α
Assay: not given
Settings: cited from earlier work

Row | Compound | IκB degradation
46 | C=C1C(=O)O[C@@H]2C[C@H](C)[C@H]3C=CC(=O)[C@@]3(C)[C@@H](O)[C@H]12 [Helenalin] | did not inhibit
47 | COc1cc(CNC(=O)CCCC/C=C/C(C)C)ccc1O [capsaicin] | blocked degradation of IκB-α

System: p65 subunit of NF-κB
Assay: not given
Settings: cited from earlier work

Row | Compound | translocation of NF-κB to the nucleus
48 | C=C1C(=O)O[C@@H]2C[C@H](C)[C@H]3C=CC(=O)[C@@]3(C)[C@@H](O)[C@H]12 [Helenalin] | did not inhibit
49 | COc1cc(CNC(=O)CCCC/C=C/C(C)C)ccc1O [capsaicin] | blocked

System: TNF-α
Assay: not given
Settings: mouse; cited from earlier work

Row | Compound | lipopolysaccharide-induced TNF-α production
50 | NC(=O)c1cccnc1 [nicotinamide] | blocked lipopolysacharide-induced TNF-α production in mouse in a dose dependent manner
